The term IC50 denotes the point on the concentration scale where inhibition reaches its midpoint.

The values that follow come from patent US20150191484A1, “NOVEL COMPOUNDS HAVING A TETRACYCLIC IRIDOID SKELTON AND AN ANTI-TRYPANOSOMAL AGENT COMPRISING THE SAME AS AN ACTIVE INGREDIENT” (NATIONAL UNIVERSITY CORPORATION TOKYO MEDICAL AND DENTAL …, priority 2014, published 2015).

Entries after “also recorded” stand apart in the source; their conditions may differ.

Data set [1] concerns KATOIII (stomach cancer). The data set can be described thus: MTT cytotoxicity assay, KATOIII. It counts as cell-based, human. Particulars: IC50 against KATOIII / IC50 against T. brucei. Here is the method:
(§1) The cytotoxic activity of natural products against mammalian cells is an important point in the search for active compounds with biological activity. […] In order to confirm the selective and potent anti-trypanosomal activity of ML-2-2 and ML-2-3, we examined their cytotoxicity in a panel of human cell lines including two human fibroblastic and 8 human cancer-derived cell lines. Cells were seeded in 96-well microplates and incubated with ML-2-2 and ML-2-3 for 48 h at 37° C. in a 5% CO2 humidified incubator. The viabilities of cells were determined with the MTT (3-(4,5-dimethylthiazol-2-yl)-2-5-diphenyltetrazolium bromide) assay. The selectivity index (SI) was determined using the following equation: IC50 against human cells/IC50 against T. brucei. The IC50 values of ML-2-3 were higher than those of ML-2-2 in all the cell lines examined. […] The SI of ML-2-2 indicates values below 1.00 in most cell lines. On the other hand, SI values of ML-2-3 were much higher than those of ML-2-2 in all tested cell lines.
In general terms: Formazan colour is commonly taken as a measure of viable cells.

The nature of data set [2]: MTT cytotoxicity assay, KATOIII. It counts as cell-based, human. To be noted: human, KATOIII stomach cancer cells; KATOIII stomach cancer, 48 h, MTT. The protocol:
as §1

The test system of data set [3] is HF-19 (normal fibroblast). The data set can be described thus: MTT cytotoxicity assay, HF-19. The format is cell-based, human. To be noted: IC50 against HF-19 / IC50 against T. brucei. The protocol:
as §1

Data set [4] can be described thus: MTT cytotoxicity assay, HF-19. To be noted: human, HF-19 normal fibroblast cells; HF-19 normal fibroblast, 48 h, MTT. The format is cell-based, human. Here is the method: as §1
In data set [5] the test system is HCT-15 (colon cancer). The data set can be described thus: MTT cytotoxicity assay, HCT-15. The format is cell-based, human. To be noted: IC50 against HCT-15 / IC50 against T. brucei. Here is the method:
as §1

The nature of data set [6]: MTT cytotoxicity assay, HCT-15. The format is cell-based, human. Particulars: human, HCT-15 colon cancer cells; HCT-15 colon cancer, 48 h, MTT. Here is the method:
as §1

Data set [7] relates to Jurkat (leukemia). As to the kind of experiment: MTT cytotoxicity assay, Jurkat. It counts as cell-based, human. To be noted: IC50 against Jurkat / IC50 against T. brucei. The protocol:
as §1

The nature of data set [8]: MTT cytotoxicity assay, Jurkat. To be noted: human, Jurkat leukemia cells; Jurkat leukemia, 48 h, MTT. The format is cell-based, human. The protocol: as §1
Data set [9] relates to NB1RGB (normal fibroblast). The data set can be described thus: MTT cytotoxicity assay, NB1RGB. It counts as cell-based, human. To be noted: IC50 against NB1RGB / IC50 against T. brucei. The protocol:
as §1

Data set [10] in a line: MTT cytotoxicity assay, NB1RGB. To be noted: human, NB1RGB normal fibroblast cells; NB1RGB normal fibroblast, 48 h, MTT. The format is cell-based, human. The protocol:
as §1

For data set [11], the system named is THP-1 (leukemia). The data set can be described thus: MTT cytotoxicity assay, THP-1. The format is cell-based, human. To be noted: IC50 against THP-1 / IC50 against T. brucei. The protocol: as §1
Data set [12] can be described thus: MTT cytotoxicity assay, THP-1. It counts as cell-based, human. Particulars: human, THP-1 leukemia cells; THP-1 leukemia, 48 h, MTT. The protocol: as §1
For data set [13], the system named is HL-60 (leukemia). As to the kind of experiment: MTT cytotoxicity assay, HL-60. The format is cell-based, human. To be noted: IC50 against HL-60 / IC50 against T. brucei. The protocol:
as §1

Data set [14] can be described thus: MTT cytotoxicity assay, HL-60. The format is cell-based, human. Particulars: human, HL-60 leukemia cells; HL-60 leukemia, 48 h, MTT. Here is the method: as §1
Data set [15] relates to Trypanosoma cells. As to the kind of experiment: Cell cycle assay (FACS). To be noted: four times of IC50: 15 μM ML-2-3, 5 μM ML-2-2; 24 hours. It counts as cell-based, Trypanosoma brucei brucei. The protocol: (§2) The GUTat 3.1 strain of the bloodstream forms of T. b. brucei parasites was used for this study. Parasites were cultured in vitro according to the conditions established by Yabu et al, 1998.
(§3) Parasites were used when they reached a confluent concentration of 1×10^6 parasites/ml. Estimation of parasitemia was done with the Neubauer's counting chamber. Parasites were diluted to a concentration of 3×10^5 parasites/ml with HMI-9 medium and used for the various experiments.
This assay was performed to investigate any abnormal change in the parasites' cell cycle which may be caused by extracts/compounds with trypanocidal effect. […] The parasites were collected and transferred into 15 ml centrifuge tubes and centrifuged at 1700 rpm for 10 min, after which the supernatant was discarded. The pelleted parasites were re-suspended in 5 ml PBS solution and vortexed to form a suspension. The parasite suspension was centrifuged at 1700 rpm for 10 min and the supernatant discarded. The pelleted parasites were re-suspended in 1.5 ml of PBS and vortexed thoroughly before adding 3.5 ml absolute EtOH gradually to a final volume of 5 ml 70% EtOH. The parasites were then fixed at −20° C. for 1 h. The cell suspension was then centrifuged at 1700 rpm for 10 min and the supernatant discarded. Pelleted parasites were re-suspended in 200 μl of Guava Cell Cycle reagent, which has Propidium Iodide as its main constituent and incubated at room temperature for 30 min. The solution was transferred to wells of 96-well plate. The well contents were then subjected to FACS analysis using the Millipore guava easyCyte 5HT FACS machine, for the sorting of parasites according to the manufacturer's instructions.

The subject of data set [16] is Trypanosoma cells. As to the kind of experiment: Nexin apoptosis assay (FACS). The format is cell-based, Trypanosoma brucei brucei. The protocol:
as §2, §3
This assay was performed to detect both Phosphatidylserine (PS) signal and fracture of nuclear membraneas markers of apoptosis. Seeding and incubation of parasites with plant materials (extracts, fractions and compounds) were done under the same conditions in Alamar Blue assay. […] The contents of the wells were then subjected to FACS analysis using, the Millipore guava easyCyte 5HT FACS machine for the sorting and estimation of apoptotic parasites according to the manufacturer's instructions.

Data set [17] concerns U937 (leukemia). The data set can be described thus: MTT cytotoxicity assay, U937. It counts as cell-based, human. Particulars: IC50 against U937 / IC50 against T. brucei. The protocol: as §1
Data set [18] is described as follows: MTT cytotoxicity assay, U937. It counts as cell-based, human. Particulars: human, U937 leukemia cells; U937 leukemia, 48 h, MTT. Here is the method: as §1
The subject of data set [19] is GUTat 3.1 strain of the bloodstream forms of T. b. brucei parasites. As to the kind of experiment: Alamar Blue assay (trypanocidal activity). To be noted: Trypanosoma brucei, 48 h, T. b. brucei, Alamar Blue, 48 h; read-out: IC50 of anti-trypanosomal activity. It counts as cell-based, Trypanosoma brucei brucei. Here is the method:
as §2, §3
The Alamar Blue assay was carried out in a 96-well plate. About 1.5×10^4 Parasites were seeded with varied concentrations of the Morinda lucida crude extract, ranging from as low as 0.78 μg/ml to as high as 200 μg/ml, in a ratio of 1:1 in 100 μl volume per well. Berberine, a compound known as anti-trypanocidal agent, was used as a positive control. […] The parasites were incubated with the plant extracts for 24 hours at 37° C. and under 5% CO2. After 24 hours, 10% Alamar Blue dye was added to each well and re-incubated for another 24 hours under the same conditions but in darkness. After a total of 48 hours, the plate was read for absorbance at 540 nm using the TECAN Sunrise Wako Spectrophotometer. An Absorbance-concentration (extract) curve was drawn and the IC50 value of the plant extract was extrapolated. Alamar Blue assay was also performed on the fractions and compounds purified from Morinda Lucida to determine their IC50 values. The IC50 values obtained were compared with that of the positive control and trypanocidal activity determined.
A general note: Alamar Blue is a resazurin reagent that responds to reducing activity.

Data set [20] is described as follows: MTT cytotoxicity assay, Caco2. It counts as cell-based, human. Particulars: human, Caco2 colon cancer cells; Caco2 colon cancer, 48 h, MTT. Here is the method: as §1
In data set [21] the test system is Caco2 (colon cancer). The data set can be described thus: MTT cytotoxicity assay, Caco2. Particulars: IC50 against Caco2 / IC50 against T. brucei. It counts as cell-based, human. The protocol: as §1
A short description of data set [22]: MTT cytotoxicity assay, LoVo. It counts as cell-based, human. To be noted: human, LoVo colon cancer cells; LoVo colon cancer, 48 h, MTT. Here is the method:
as §1

Data set [23] relates to LoVo (colon cancer). The data set can be described thus: MTT cytotoxicity assay, LoVo. It counts as cell-based, human. To be noted: IC50 against LoVo / IC50 against T. brucei. The protocol: as §1
The subject of data set [24] is Leishmania. Particulars: reported in literature; cited from earlier work.
The subject of data set [25] is nuclear DNA of Trypanosoma cells. To be noted: reported in literature; cited from earlier work.

Consider `COC(=O)C1=CO[C@@H]2O[C@H]3/C(=C\c4ccc(O)c(OC)c4)C(=O)O[C@]34C=C[C@H]1[C@H]24` [ML-2-2, (3aS,4aR,4a^1S,7aS,9aS,3E)-methyl 3-(4-hydroxy-3-methoxybenzylidene)-2-oxo-2,3,3a,4a,4a^1,7a-hexahydro-1,4,5-trioxadicyclopenta[a,hi]indene-7-carboxylate], for which the “SI (selectivity index)” value in data set [1] came out at 0.17; in data set [3] it was 9.54; in [5] it was 12.63; in [7], 1.93; in data set [9], 4.73; in data set [11], 5.50. In addition, the “SI (selectivity index)” value was 3.05 in [13], 3.21 in [17], 1.06 in data set [21] and 0.09 in data set [23]. For the same compound, the IC50 at 48 h in data set [2] stood at 0.21 µM; in data set [4], 12.1 µM; in data set [6], 16 µM; in [8], 2.45 µM; in [10], 6.01 µM; in data set [12] it was 6.98 µM. In addition, the half-maximal inhibitory concentration (IC50) at 48 h in data set [14] was found to be 3.87 µM; in data set [18], 4.08 µM; in data set [20] it was 1.35 µM; in [22] it was 0.11 µM. The “numbers of cells in the G2 and M phase of cell cycle” value in [15] is “did not; also recorded: had no effect”. In [16] (6.25 μM, 24-hour incubation), the induction of apoptosis entry is recorded as “no significant induction of apoptosis”. Moreover, in [16] (same concentration (6 μM)), the “induction of apoptosis in Trypanosoma cells” value is “did not”. Moreover, in [19], the IC50 is 1.27 µM.
For the compound `COC(=O)C1=CO[C@H]2O[C@@H]3/C(=C\c4ccc(O)c(OC)c4)C(=O)O[C@@]34C=C[C@@H]1[C@H]24` [Oruwacin], in [24], the anti-Leishmania activity entry is listed as “has anti-Leishmania activity”.
Consider `N=C(N)c1ccc(OCCCCCOc2ccc(C(=N)N)cc2)cc1` [Pentamidine], for which the “effect on nuclear DNA of Trypanosoma cells” value in data set [25] is recorded as “no effect on nuclear DNA”.
